Source: ChEMBL document CHEMBL5344466, “Pyrrolidinone Derivatives as NIK Inhibitors for Treating Inflammatory and Autoimmune Diseases” (ACS Med Chem Lett, 2024)

target: Mitogen-activated protein kinase kinase kinase 14 (Homo sapiens, UniProt Q99558); experiment: Inhibition of auto-phosphorylation of human GST-tagged NIK/MAP3K14 measured for 2 hrs by AlphaScreen assay
Sequence (Q99558 whole entry): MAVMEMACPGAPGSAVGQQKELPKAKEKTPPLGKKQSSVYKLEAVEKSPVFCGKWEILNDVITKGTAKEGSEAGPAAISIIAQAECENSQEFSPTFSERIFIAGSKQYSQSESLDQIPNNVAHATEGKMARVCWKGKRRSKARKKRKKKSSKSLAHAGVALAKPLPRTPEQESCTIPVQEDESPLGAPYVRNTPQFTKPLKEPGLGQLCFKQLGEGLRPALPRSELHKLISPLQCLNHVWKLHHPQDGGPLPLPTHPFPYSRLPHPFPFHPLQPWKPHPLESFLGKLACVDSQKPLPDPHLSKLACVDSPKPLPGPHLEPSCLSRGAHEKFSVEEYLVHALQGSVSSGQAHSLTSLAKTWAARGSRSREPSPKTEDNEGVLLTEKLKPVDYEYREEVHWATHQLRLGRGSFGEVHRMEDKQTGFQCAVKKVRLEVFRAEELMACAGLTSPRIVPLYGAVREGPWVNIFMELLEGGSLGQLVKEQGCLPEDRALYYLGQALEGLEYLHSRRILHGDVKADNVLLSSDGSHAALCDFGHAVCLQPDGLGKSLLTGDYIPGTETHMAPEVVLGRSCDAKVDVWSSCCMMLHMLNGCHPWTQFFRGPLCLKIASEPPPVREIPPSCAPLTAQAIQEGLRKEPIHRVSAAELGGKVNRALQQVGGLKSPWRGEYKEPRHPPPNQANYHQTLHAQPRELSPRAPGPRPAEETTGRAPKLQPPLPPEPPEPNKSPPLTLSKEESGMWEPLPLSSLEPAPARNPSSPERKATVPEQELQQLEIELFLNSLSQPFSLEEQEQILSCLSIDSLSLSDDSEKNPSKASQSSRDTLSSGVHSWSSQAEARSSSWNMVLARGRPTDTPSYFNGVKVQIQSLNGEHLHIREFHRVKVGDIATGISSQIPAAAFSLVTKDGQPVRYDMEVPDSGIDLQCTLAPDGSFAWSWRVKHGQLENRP

| Compound | IC50 [nM] |
| --- | --- |
| CN1CC[C@@](O)(c2cc(-c3cccc(-c4ccc(C(N)=O)o4)c3)no2)C1=O | < 100 |
| CN1CCC(O)(c2cn(-c3cccc(-c4nc(C(N)=O)c5ccccc5n4)c3)cn2)C1=O (stereo unspecified) | < 100 |
| [2H]c1nc(N)c2nc(-c3cccc(-c4cnc([C@@]5(O)CCN(C)C5=O)s4)c3)ccc2n1 | < 100 |
| CN1CC[C@@](O)(c2cc(-c3cccc(-c4cc(C5CC5)nc(C(N)=O)n4)c3)no2)C1=O | < 100 |
| CN1CC[C@@](O)(c2cc(-c3cccc(-c4nc(C(N)=O)c(Br)s4)c3)no2)C1=O | < 100 |
| CN1CC[C@@](O)(c2cc(-c3cccc(-c4cc(N5CC(F)(F)C5)cc(C(N)=O)n4)c3)no2)C1=O | < 100 |
